In publication PMC12310023 (PLOS Neglected Tropical Diseases, 2025):

Tested on: NLuc-expressing C. parvum
Assay: NLuc C. parvum IFNγ-KO mouse infection model, oocyst shedding
Assay type: in vivo

With `CC(C)(CO)Cn1nc(-c2ccc3cc(OC4CC4)ccc3c2)c(C(N)=O)c1N` [compound 1708] as the compound, how does the “RLU Raw” value (8 mg/kg QD x3, group I, Day 6, Cp Mouse Efficacy 1) read?
Its value is 754480 RLU.

And the “RLU Raw” value (8 mg/kg QD x3, group I, Day 7, Cp Mouse Efficacy 1)?
The value was 2842576 RLU.

What about the “RLU Raw” value (8 mg/kg QD x3, group I, Day 8, Cp Mouse Efficacy 1) of the same compound?
Its value is 17367584 RLU.

What about the “RLU Raw” value (8 mg/kg QD x3, group I, Day 9, Cp Mouse Efficacy 1) of the same compound?
The value was 4938000 RLU.

What about the “RLU Raw” value (8 mg/kg QD x3, group I, Day 10, Cp Mouse Efficacy 1) of the same compound?
Its value is 9525504 RLU.

What about the “RLU Raw” value (8 mg/kg QD x3, group I, Day 13, Cp Mouse Efficacy 1) of the same compound?
Its value is 2717520 RLU.

What about the “RLU Raw” value (8 mg/kg QD x3, group I, Day 15, Cp Mouse Efficacy 1) of the same compound?
The value was 2626944 RLU.

What about the “RLU Raw” value (8 mg/kg QD x3, group I, Day 17, Cp Mouse Efficacy 1) of the same compound?
The value was 5999920 RLU.

What about the “RLU Raw” value (8 mg/kg QD x3, group I, Day 20, Cp Mouse Efficacy 1) of the same compound?
The value was 14563168 RLU.

And the “RLU standardized by fecal weight” value (8 mg/kg QD x3, group I, day 6 p.i., Cp Mouse Efficacy 1)?
The value was 118816 RLU.

What about the “RLU standardized by fecal weight” value (8 mg/kg QD x3, group I, day 7 p.i., Cp Mouse Efficacy 1) of the same compound?
The value was 653466 RLU.

And the “RLU standardized by fecal weight” value (8 mg/kg QD x3, group I, day 8 p.i., Cp Mouse Efficacy 1)?
Its value is 4135139 RLU.

And the “RLU standardized by fecal weight” value (8 mg/kg QD x3, group I, day 9 p.i., Cp Mouse Efficacy 1)?
The value was 1371667 RLU.

And the “RLU standardized by fecal weight” value (8 mg/kg QD x3, group I, day 10 p.i., Cp Mouse Efficacy 1)?
The value was 1763982 RLU.

And the “RLU standardized by fecal weight” value (8 mg/kg QD x3, group I, day 13 p.i., Cp Mouse Efficacy 1)?
Its value is 414889 RLU.

What about the “RLU standardized by fecal weight” value (8 mg/kg QD x3, group I, day 15 p.i., Cp Mouse Efficacy 1) of the same compound?
Its value is 314604 RLU.

And the “RLU standardized by fecal weight” value (8 mg/kg QD x3, group I, day 17 p.i., Cp Mouse Efficacy 1)?
Its value is 909079 RLU.

And the “RLU standardized by fecal weight” value (8 mg/kg QD x3, group I, day 20 p.i., Cp Mouse Efficacy 1)?
Its value is 1879118 RLU.

What about the “RLU Raw” value (15 mg/kg QD x3, group H, Day 6, Cp Mouse Efficacy 1) of the same compound?
The value was 464960 RLU.

And the “RLU Raw” value (15 mg/kg QD x3, group H, Day 7, Cp Mouse Efficacy 1)?
The value was 131248 RLU.

What about the “RLU Raw” value (15 mg/kg QD x3, group H, Day 8, Cp Mouse Efficacy 1) of the same compound?
The value was 447488 RLU.

And the “RLU Raw” value (15 mg/kg QD x3, group H, Day 9, Cp Mouse Efficacy 1)?
Its value is 45888 RLU.

And the “RLU Raw” value (15 mg/kg QD x3, group H, Day 10, Cp Mouse Efficacy 1)?
The value was 5216 RLU.

And the “RLU Raw” value (15 mg/kg QD x3, group H, Day 13, Cp Mouse Efficacy 1)?
Its value is 1120 RLU.

And the “RLU Raw” value (15 mg/kg QD x3, group H, Day 15, Cp Mouse Efficacy 1)?
The value was 6784 RLU.

And the “RLU Raw” value (15 mg/kg QD x3, group H, Day 17, Cp Mouse Efficacy 1)?
Its value is 944 RLU.

What about the “RLU Raw” value (15 mg/kg QD x3, group H, Day 20, Cp Mouse Efficacy 1) of the same compound?
Its value is 848 RLU.

And the “RLU standardized by fecal weight” value (15 mg/kg QD x3, group H, day 6 p.i., Cp Mouse Efficacy 1)?
Its value is 86104 RLU.

And the “RLU standardized by fecal weight” value (15 mg/kg QD x3, group H, day 7 p.i., Cp Mouse Efficacy 1)?
The value was 18617 RLU.

And the “RLU standardized by fecal weight” value (15 mg/kg QD x3, group H, day 8 p.i., Cp Mouse Efficacy 1)?
Its value is 49446 RLU.

And the “RLU standardized by fecal weight” value (15 mg/kg QD x3, group H, day 9 p.i., Cp Mouse Efficacy 1)?
The value was 4543 RLU.

And the “RLU standardized by fecal weight” value (15 mg/kg QD x3, group H, day 10 p.i., Cp Mouse Efficacy 1)?
The value was 1391 RLU.

And the “RLU standardized by fecal weight” value (15 mg/kg QD x3, group H, day 13 p.i., Cp Mouse Efficacy 1)?
The value was 89 RLU.

What about the “RLU standardized by fecal weight” value (15 mg/kg QD x3, group H, day 15 p.i., Cp Mouse Efficacy 1) of the same compound?
Its value is 665 RLU.

And the “RLU standardized by fecal weight” value (15 mg/kg QD x3, group H, day 17 p.i., Cp Mouse Efficacy 1)?
Its value is 115 RLU.

And the “RLU standardized by fecal weight” value (15 mg/kg QD x3, group H, day 20 p.i., Cp Mouse Efficacy 1)?
The value was 86 RLU.

What about the “RLU Raw” value (15 mg/kg x 1 days, group G, Day 6, Cp Mouse Efficacy 2) of the same compound?
The value was 267600 RLU.

What about the “RLU Raw” value (15 mg/kg x 1 days, group G, Day 7, Cp Mouse Efficacy 2) of the same compound?
Its value is 185696 RLU.

And the “RLU Raw” value (15 mg/kg x 1 days, group G, Day 8, Cp Mouse Efficacy 2)?
The value was 380816 RLU.

What about the “RLU Raw” value (15 mg/kg x 1 days, group G, Day 9, Cp Mouse Efficacy 2) of the same compound?
The value was 630928 RLU.

And the “RLU Raw” value (15 mg/kg x 1 days, group G, Day 10, Cp Mouse Efficacy 2)?
Its value is 2410000 RLU.

What about the “RLU Raw” value (15 mg/kg x 1 days, group G, Day 13, Cp Mouse Efficacy 2) of the same compound?
The value was 338704 RLU.

What about the “RLU Raw” value (15 mg/kg x 1 days, group G, Day 15, Cp Mouse Efficacy 2) of the same compound?
Its value is 51520 RLU.

And the “RLU Raw” value (15 mg/kg x 1 days, group G, Day 17, Cp Mouse Efficacy 2)?
The value was 66336 RLU.

And the “RLU Raw” value (15 mg/kg x 1 days, group G, Day 20, Cp Mouse Efficacy 2)?
The value was 43392 RLU.

And the “RLU standardized by fecal weight” value (15 mg/kg x 1 days, group G, day 6 p.i., Cp Mouse Efficacy 2)?
The value was 18713 RLU.

What about the “RLU standardized by fecal weight” value (15 mg/kg x 1 days, group G, day 7 p.i., Cp Mouse Efficacy 2) of the same compound?
Its value is 21344 RLU.

What about the “RLU standardized by fecal weight” value (15 mg/kg x 1 days, group G, day 8 p.i., Cp Mouse Efficacy 2) of the same compound?
Its value is 110381 RLU.

What about the “RLU standardized by fecal weight” value (15 mg/kg x 1 days, group G, day 9 p.i., Cp Mouse Efficacy 2) of the same compound?
The value was 122510 RLU.

And the “RLU standardized by fecal weight” value (15 mg/kg x 1 days, group G, day 10 p.i., Cp Mouse Efficacy 2)?
Its value is 529670 RLU.

What about the “RLU standardized by fecal weight” value (15 mg/kg x 1 days, group G, day 13 p.i., Cp Mouse Efficacy 2) of the same compound?
Its value is 94084 RLU.

And the “RLU standardized by fecal weight” value (15 mg/kg x 1 days, group G, day 15 p.i., Cp Mouse Efficacy 2)?
The value was 6869 RLU.

What about the “RLU standardized by fecal weight” value (15 mg/kg x 1 days, group G, day 17 p.i., Cp Mouse Efficacy 2) of the same compound?
Its value is 20102 RLU.

What about the “RLU standardized by fecal weight” value (15 mg/kg x 1 days, group G, day 20 p.i., Cp Mouse Efficacy 2) of the same compound?
Its value is 10091 RLU.

What about the “RLU Raw” value (15 mg/kg x 2 days, group H, Day 6, Cp Mouse Efficacy 2) of the same compound?
Its value is 505536 RLU.

What about the “RLU Raw” value (15 mg/kg x 2 days, group H, Day 7, Cp Mouse Efficacy 2) of the same compound?
The value was 606112 RLU.

What about the “RLU Raw” value (15 mg/kg x 2 days, group H, Day 8, Cp Mouse Efficacy 2) of the same compound?
The value was 78272 RLU.

And the “RLU Raw” value (15 mg/kg x 2 days, group H, Day 9, Cp Mouse Efficacy 2)?
The value was 75472 RLU.

And the “RLU Raw” value (15 mg/kg x 2 days, group H, Day 10, Cp Mouse Efficacy 2)?
Its value is 77152 RLU.

What about the “RLU Raw” value (15 mg/kg x 2 days, group H, Day 13, Cp Mouse Efficacy 2) of the same compound?
The value was 20208 RLU.

And the “RLU Raw” value (15 mg/kg x 2 days, group H, Day 15, Cp Mouse Efficacy 2)?
The value was 12176 RLU.

What about the “RLU Raw” value (15 mg/kg x 2 days, group H, Day 17, Cp Mouse Efficacy 2) of the same compound?
Its value is 9280 RLU.

And the “RLU Raw” value (15 mg/kg x 2 days, group H, Day 20, Cp Mouse Efficacy 2)?
Its value is 10848 RLU.

What about the “RLU standardized by fecal weight” value (15 mg/kg x 2 days, group H, day 6 p.i., Cp Mouse Efficacy 2) of the same compound?
The value was 118950 RLU.

And the “RLU standardized by fecal weight” value (15 mg/kg x 2 days, group H, day 7 p.i., Cp Mouse Efficacy 2)?
Its value is 269383 RLU.

What about the “RLU standardized by fecal weight” value (15 mg/kg x 2 days, group H, day 8 p.i., Cp Mouse Efficacy 2) of the same compound?
Its value is 14630 RLU.

What about the “RLU standardized by fecal weight” value (15 mg/kg x 2 days, group H, day 9 p.i., Cp Mouse Efficacy 2) of the same compound?
Its value is 18635 RLU.

And the “RLU standardized by fecal weight” value (15 mg/kg x 2 days, group H, day 10 p.i., Cp Mouse Efficacy 2)?
The value was 18370 RLU.

And the “RLU standardized by fecal weight” value (15 mg/kg x 2 days, group H, day 13 p.i., Cp Mouse Efficacy 2)?
The value was 1962 RLU.

What about the “RLU standardized by fecal weight” value (15 mg/kg x 2 days, group H, day 15 p.i., Cp Mouse Efficacy 2) of the same compound?
The value was 2387 RLU.

What about the “RLU standardized by fecal weight” value (15 mg/kg x 2 days, group H, day 17 p.i., Cp Mouse Efficacy 2) of the same compound?
The value was 1160 RLU.

What about the “RLU standardized by fecal weight” value (15 mg/kg x 2 days, group H, day 20 p.i., Cp Mouse Efficacy 2) of the same compound?
Its value is 4094 RLU.

What about the “RLU Raw” value (15 mg/kg x 3 days, group I, Day 6, Cp Mouse Efficacy 2) of the same compound?
Its value is 932240 RLU.

What about the “RLU Raw” value (15 mg/kg x 3 days, group I, Day 7, Cp Mouse Efficacy 2) of the same compound?
The value was 627218 RLU.

And the “RLU Raw” value (15 mg/kg x 3 days, group I, Day 8, Cp Mouse Efficacy 2)?
Its value is 396768 RLU.

And the “RLU Raw” value (15 mg/kg x 3 days, group I, Day 9, Cp Mouse Efficacy 2)?
Its value is 37984 RLU.

And the “RLU Raw” value (15 mg/kg x 3 days, group I, Day 10, Cp Mouse Efficacy 2)?
Its value is 6160 RLU.

What about the “RLU Raw” value (15 mg/kg x 3 days, group I, Day 13, Cp Mouse Efficacy 2) of the same compound?
The value was 1280 RLU.

And the “RLU Raw” value (15 mg/kg x 3 days, group I, Day 15, Cp Mouse Efficacy 2)?
The value was 656 RLU.

And the “RLU Raw” value (15 mg/kg x 3 days, group I, Day 17, Cp Mouse Efficacy 2)?
The value was 496 RLU.

What about the “RLU Raw” value (15 mg/kg x 3 days, group I, Day 20, Cp Mouse Efficacy 2) of the same compound?
Its value is 864 RLU.
